From patent publication US11440907B1 (Merck Patent GmbH, priority 2018, dated 2022)

Legend:
Type in all cases: cell-based
[1] = tested on: intracellular calcium flux in Colo-205 cells; test: Calcium flux assay (FLIPR Calcium 5 Assay Kit, FLIPR3); details: Homo sapiens, 0.6 h, calcium flux measured over 36 minutes, read-out: Colo 205 Calcium Flux assay 384w Boston Ca assay FLIPR3 Colo EC50
Method: Compounds described herein induced ER stress by causing intracellular calcium flux. Calcium flux was measured in Colo-205 cells using the FLIPR® Calcium 5 Assay Kit according to manufacturer's protocol (Molecular Devices, Cat. #R8186) on a FLIPR3 system (Molecular Devices). Calcium flux is measured over 36 minutes. The Colo-205 calcium flux assay data are summarized in Table 3: A<0.6 μM; 0.6 μM≤B<2.0 μM; 2.0 μM≤C<10.0 μM; D≥10.0 μM.

[2] = tested on: β-catenin-TCF-mediated reporter transcription activity in Colo 205 cells; test: Colo 205 reporter assay (TCF/LEF promoter-driven firefly luciferase); details: Homo sapiens; Colo 205 TCF/LEF luciferase reporter, 5 hours after compound addition, 384 well; read-out: Colo205 IC50
[3] = tested on: XBP1(u)-luciferase splicing reporter in HepG2 hepatoma cells; test: HepG2 XBP1 reporter assay (XBP1(u)-Luc); details: Homo sapiens, 6 hours after compound addition, Table 3, read-out: XBP1-luc HepG2 1 EC50

SMILES	EC50 [1]	IC50 [2]	EC50 [3]
Cc1cc(N2CCCOC[C@H]2c2ccc(C(N)=O)cc2Cl)nc(N)n1 [I-188]	< 0.6 µM	< 0.3 µM	0.6 to 2 µM
CCS(=O)(=O)c1ccc(C2COCCCN2c2cc(C)nc(N)n2)c(Cl)c1 (stereo not shown) [I-297]	< 0.6 µM	0.3 to 1 µM	< 0.6 µM
Cc1cc(N2CCCOC[C@@H]2c2ccc(N3CCOCC3)cc2Cl)nc(N)n1 [I-216, 4-[(3S)-3-(2-chloro-4-morpholino-phenyl)-1,4-oxazepan-4-yl]-6-methyl-pyrimidin-2-amine]	< 0.6 µM	< 0.3 µM	< 0.6 µM
Cc1cc(N2CCCOC[C@H]2c2cc(NC(=O)C(F)(F)F)ccc2Cl)nc(N)n1 (single isomer, unassigned) [I-176]	< 0.6 µM	0.3 to 1 µM	0.6 to 2 µM
Cc1cc(N2CCCOCC2c2ccc(N(C)C3COC3)cc2Cl)nc(N)n1 (racemic) [I-186, (+/−)-4-[3-[2-chloro-4-[methyl(oxetan-3-yl)amino]phenyl]-1,4-oxazepan-4-yl]-6-methyl-pyrimidin-2-amine]	< 0.6 µM	< 0.3 µM	< 0.6 µM
CNC(=O)c1ccc(OC)c(C2COCCCN2c2cc(C)nc(N)n2)c1 (racemic) [I-82, (+/−)-3-(4-(2-amino-6-methylpyrimidin-4-yl)-1,4-oxazepan-3-yl)-4-methoxy-N-methylbenzamide]	0.6 to 2 µM	0.3 to 1 µM	
Cc1cc(N2CCCOCC2c2cc(N)ccc2Cl)nc(N)n1 (racemic) [I-71, (+/−)-4-(3-(5-amino-2-chlorophenyl)-1,4-oxazepan-4-yl)-6-methylpyrimidin-2-amine]	< 0.6 µM	< 0.3 µM	
Cc1cc(N2CCCOC[C@@H]2c2cc(O)ccc2Cl)nc(N)n1 (single isomer, unassigned) [I-170]	< 0.6 µM	< 0.3 µM	
Cc1cc(N2CCCOCC2c2cc(NS(C)(=O)=O)ccc2Cl)nc(N)n1 (racemic) [I-74, (+/−)-N-(3-(4-(2-amino-6-methylpyrimidin-4-yl)-1,4-oxazepan-3-yl)-4-chlorophenyl)methanesulfonamide]	< 0.6 µM	< 0.3 µM	

Next, values leading:

EC50 [1]	IC50 [2]	EC50 [3]	SMILES
0.6 to 2 µM	0.3 to 1 µM	2 to 5 µM	CC(C)c1cc(N2CCCCCC2c2ccccc2Cl)nc(N)n1 (racemic) [I-16, (+/−)-4-(2-(2-chlorophenyl)azepan-1-yl)-6-isopropylpyrimidin-2-amine]
< 0.6 µM	0.3 to 1 µM		Cc1cc(N2CCCOCC2c2cc(F)ccc2Cl)nc(N)n1 (racemic) [I-70, (+/−)-4-[3-(2-chloro-5-fluoro-phenyl)-1,4-oxazepan-4-yl]-6-methyl-pyrimidin-2-amine]
< 0.6 µM	0.3 to 1 µM		Cc1cc(N2CCCOCC2c2c(F)cccc2Cl)nc(N)n1 (racemic) [I-59, (+/−)-4-(3-(2-chloro-6-fluorophenyl)-1,4-oxazepan-4-yl)-6-methylpyrimidin-2-amine]
< 0.6 µM	0.3 to 1 µM		Cc1cc(N2CCCOC[C@@H]2c2ccc(F)cc2F)nc(N)n1 (single isomer, unassigned) [I-62]
< 0.6 µM	0.3 to 1 µM		CNC(=O)c1ccc(F)c(C2CCCCCN2c2cc(C)nc(N)n2)c1 (stereo not shown) [I-55, 3-(1-(2-amino-6-methylpyrimidin-4-yl)azepan-2-yl)-4-fluoro-N-methylbenzamide]
0.6 to 2 µM	0.3 to 1 µM		Cc1cc(N2CCCCC[C@@H]2c2ccc(F)cc2C2CC2)nc(N)n1 [I-47, (R)-4-(2-(2-cyclopropyl-4-fluorophenyl)azepan-1-yl)-6-methylpyrimidin-2-amine]
< 0.6 µM	0.3 to 1 µM		Cc1cc(N2CCCCCC2c2ccc(S(C)(=O)=O)cc2C)nc(N)n1 (racemic) [I-37, (+/−)-4-methyl-6-(2-(2-methyl-4-(methylsulfonyl)phenyl)azepan-1-yl)pyrimidin-2-amine]
< 0.6 µM	< 0.3 µM		Cc1cc(N2CCCOC[C@@H]2c2cc(F)ccc2Cl)nc(N)n1 (single isomer, unassigned) [I-79]
